Key:
[1] = molecular target: T1, (Mus musculus, UniProt P32300); assay: Tail-flick assay, antagonism of analgesia produced by delta opioid agonists (DPDPE, DEL II); assay type: in vivo, ICR-CD1 mice; conditions: mice, i.c.v.
T1 construct: by the intracerebroventricular (i.c.v.) route of administration to mice; from tissue; host or cells: living ICR-CD1 mice (central nervous system, i.c.v. dosing)
Description: (§1) The testing protocol involved the tail-flick assay. For the measurement of the tail-flick latency, ICR-CD1 mice, mice were held gently in one hand with the tail positioned in the apparatus (Tail Flick Analgesia Meter, Columbus Instruments, Columbus, Ohio) for radiant heat stimulus. The tail-flick response was elicited by applying radiant heat to the dorsal side of the tail. The intensity of the heat was set so that the mouse flicks its tail within 2 to 3 seconds. The test latency was measured before treatment of the agonist control, and again after the antagonist treatment at the time of peak agonist activity.
At least three groups of four to ten mice were used for each dose response curve. ED50 values with 95% confidence intervals (C.I.) were computed with GraphPad Prism 4 using nonlinear regression methods. […] Antinociception was quantified as the percent maximal possible effect (% MPE), which is calculated as: % MPE=(Test−Control/10−Control)×100. GNTI.2HCl or GNTI.2LA. […] The data are expressed as bar graphs that indicate the % maximum possible effect (% MPE) of GNTI-.2HCl or GNTI.2LA in antagonizing the analgesia produced by selective kappa opioid agonists (U50488H, Bremazocine, U69593) or delta opioid agonists (DPDPE, DEL II) by the intracerebroventricular (i.c.v.) route of administration to mice.

kappa opioid receptors = molecular target: T2, kappa opioid receptors (Mus musculus, UniProt P33534); assay: Tail-flick assay, antagonism of analgesia produced by selective kappa opioid agonists (U50488H, Bremazocine, U69593); assay type: in vivo, ICR-CD1 mice; conditions: mice, i.c.v.; for antagonism of the analgesia produced by selective kappa opioid agonists (% MPE): agonists U50488H, Bremazocine, U69593
T2 construct: from tissue; host or cells: living ICR-CD1 mice (central nervous system, i.c.v. dosing)
Description: as §1
At least three groups of four to ten mice were used for each dose response curve. ED50 values with 95% confidence intervals (C.I.) were computed with GraphPad Prism 4 using nonlinear regression methods. […] Antinociception was quantified as the percent maximal possible effect (% MPE), which is calculated as: % MPE=(Test−Control/10−Control)×100. GNTI.2HCl or GNTI.2LA. The data for the dihydrochloride salt (Sigma GNTI2HCl) and the di-lipoic acid salt, GNTI.2LA (identified as WY-120) are shown in FIGS. 1 and 2. The data are expressed as bar graphs that indicate the % maximum possible effect (% MPE) of GNTI-.2HCl or GNTI.2LA in antagonizing the analgesia produced by selective kappa opioid agonists (U50488H, Bremazocine, U69593) or delta opioid agonists (DPDPE, DEL II) by the intracerebroventricular (i.c.v.) route of administration to mice.

[2] = system: insulin-stimulated glucose disposal; conditions: 13 patients with type 2 diabetes, single intravenous infusion; cited from earlier work
insulin sensitivity [3] = conditions: 72 patients with type 2 diabetes, oral administration, after four weeks of treatment; cited from earlier work
insulin sensitivity [4] = conditions: 20 patients with type 2 diabetes, intravenous infusion for ten days, measured 24 hours after the last infusion; cited from earlier work

T2 sequence (P33534 whole entry): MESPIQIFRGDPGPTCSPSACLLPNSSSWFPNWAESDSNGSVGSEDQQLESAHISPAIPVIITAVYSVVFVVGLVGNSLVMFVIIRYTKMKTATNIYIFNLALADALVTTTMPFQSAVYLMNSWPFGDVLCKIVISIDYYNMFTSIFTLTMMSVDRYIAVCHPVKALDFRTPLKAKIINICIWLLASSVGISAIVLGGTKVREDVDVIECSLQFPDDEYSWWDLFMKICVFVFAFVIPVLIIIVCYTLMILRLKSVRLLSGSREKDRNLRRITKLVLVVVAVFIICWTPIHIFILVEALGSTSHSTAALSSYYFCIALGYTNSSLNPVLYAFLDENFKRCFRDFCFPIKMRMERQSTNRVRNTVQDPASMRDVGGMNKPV
T1 sequence (P32300 whole entry): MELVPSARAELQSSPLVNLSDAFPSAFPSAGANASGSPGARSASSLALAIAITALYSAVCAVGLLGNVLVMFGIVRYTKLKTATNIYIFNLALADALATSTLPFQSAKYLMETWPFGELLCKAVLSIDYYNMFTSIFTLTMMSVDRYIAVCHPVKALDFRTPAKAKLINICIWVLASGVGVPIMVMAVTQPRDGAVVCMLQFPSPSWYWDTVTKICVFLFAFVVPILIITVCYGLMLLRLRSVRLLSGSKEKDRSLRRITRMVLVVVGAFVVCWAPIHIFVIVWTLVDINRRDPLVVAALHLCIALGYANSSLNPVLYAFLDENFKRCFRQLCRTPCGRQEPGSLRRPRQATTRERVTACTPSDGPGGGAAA

| SMILES | antagonism of the analgesia produced by delta opioid agonists (% MPE) [1] | antagonism of the analgesia produced by selective kappa opioid agonists (% MPE) (kappa opioid receptors) | kappa opioid antagonist selectivity compared with GNTI.2HCl (kappa opioid receptors; kappa versus delta agonists) | improvement of insulin-stimulated glucose disposal compared to a placebo infusion [2] | improvement of insulin sensitivity (insulin sensitivity [3]) | insulin sensitivity (insulin sensitivity [4]) |
| --- | --- | --- | --- | --- | --- | --- |
| Cl.Cl.NC(N)=Nc1ccc2[nH]c3c(c2c1)C[C@@]1(O)[C@H]2Cc4ccc(O)c5c4[C@@]1(CCN2CC1CC1)[C@H]3O5 [GNTI.2HCI] | not significantly affected | selectively antagonize the different kappa agonists | – | – | – | – |
| N=C(N)Nc1ccc2[nH]c3c(c2c1)C[C@@]1(O)C2Cc4ccc(O)c5c4[C@@]1(CCN2CC1CC1)[C@H]3O5 [GNTI.2LA, GNTI Dilipoate] | not significantly affected | selectively antagonize the different kappa agonists | not significantly different | – | – | – |
| O=C(O)CCCCC1CCSS1 (centres unmarked) [LA, 1,2-dithiolane-3-pentanoic acid] | – | – | – | 50% | 25% | improved insulin sensitivity |
